Results from patent EP0046990A2, “2-Halogeno-4-alkyl-4,7-dihydro-7-oxo-thieno(3,2-b)-pyridine-6-carboxylic acids, salts thereof at the carboxyl group, pharmaceutical use thereof, and intermediates thereof” (KANEBO, LTD., priority 1980, dated 1982).
Converted amounts (≈) assume the structure as drawn.

Tests used:
[1] = tested on: Klebsiella pneumoniae IFO 3512; experiment: antimicrobial test (MIC); type: cell-based; details: IFO3512
Escherichia coli NIHJ = experiment: antimicrobial test (MIC); type: cell-based
[2] = tested on: Staphylococcus aureus 209-P; experiment: antimicrobial test (MIC); type: cell-based
Proteus mirabilis 1287 = experiment: antimicrobial test (MIC); type: cell-based
Proteus vulgaris OX-19 = experiment: antimicrobial test (MIC); type: cell-based; details: OX19
[3] = tested on: Serratia marcescens IFO 3046; experiment: antimicrobial test (MIC); type: cell-based; details: IFO3046
Escherichia coli K-12 = experiment: antimicrobial test (MIC); type: cell-based; details: K12
[4] = tested on: Bacillus sub-tillis ATCC 6633; experiment: antimicrobial test (MIC); type: cell-based; details: ATCC6633
in vivo = details: mouse, oral administration to mice
Excerpt: The compounds of this invention have low toxicity.

| Compound | MIC [1] [µg/mL] | MIC (Escherichia coli NIHJ) [µg/mL] | MIC [2] [µg/mL] | MIC (Proteus mirabilis 1287) [µg/mL] | MIC (Proteus vulgaris OX-19) [µg/mL] | MIC [3] [µg/mL] | MIC (Escherichia coli K-12) [µg/mL] | MIC [4] [µg/mL] | LD50 (in vivo) [mg/kg] |
| --- | --- | --- | --- | --- | --- | --- | --- | --- | --- |
| CCn1cc(C(=O)O)c(=O)c2sc(Cl)cc21 [Compound A, 2-chloro-4,7-dihydro-4-ethyl-7-oxo-thieno(3,2-b)pyridine-6-carboxylic acid] | 6.25 (≈ 24.3 µM) | 1.56 (≈ 6.05 µM) | > 100 | 6.25 (≈ 24.3 µM) | 12.5 (≈ 48.5 µM) | 3.13 (≈ 12.1 µM) | 12.5 (≈ 48.5 µM) | 12.5 (≈ 48.5 µM) |  |
| CCn1cc(C(=O)O)c(=O)c2sc(Br)cc21 [Compound B, 2-bromo-4,7-dihydro-4-ethyl-7-oxo-thieno(3,2-b)pyridine-6-carboxylic acid] | 3.13 (≈ 10.4 µM) | 1.56 (≈ 5.16 µM) | > 100 | 3.13 (≈ 10.4 µM) | 6.25 (≈ 20.7 µM) | 1.56 (≈ 5.16 µM) | 6.25 (≈ 20.7 µM) | 6.25 (≈ 20.7 µM) |  |
| CCn1cc(C(=O)O)c(=O)c2sc(I)cc21 [Compound C, 2-iodo-4,7-dihydro-4-ethyl-7-oxo-thieno(3,2-b)pyridine-6-carboxylic acid] | 1.56 (≈ 4.47 µM) | 1.56 (≈ 4.47 µM) | 25 (≈ 71.6 µM) | 0.78 (≈ 2.23 µM) | 0.78 (≈ 2.23 µM) | 0.78 (≈ 2.23 µM) | 3.13 (≈ 8.96 µM) | 1.56 (≈ 4.47 µM) | 2800 |
| CCn1cc(C(=O)O)c(=O)c2ccc(C)nc21 [Nalidixic acid, reference compound] | 1.56 (≈ 6.72 µM) | 1.56 (≈ 6.72 µM) | > 100 | 3.13 (≈ 13.5 µM) | 3.13 (≈ 13.5 µM) | 1.56 (≈ 6.72 µM) | 6.25 (≈ 26.9 µM) | 3.13 (≈ 13.5 µM) |  |
